This is an account of results in patent US7291630B2, “Azaindoles as inhibitors of c-Jun N-terminal kinases” (Eisai Co., Ltd., priority 2002, dated 2007).

Each structure is given as a SMILES string.

The target in this assay is JNK3 kinase (Homo sapiens, UniProt P53779). The assay is described as follows: JNK3 SPA assay (phosphorylation of GST-c-Jun). The assay is classed as biochemical. As to conditions: 3.33 μM ATP, GST-c-Jun substrate, 30 minutes at room temperature. The method, then:
JNK1, JNK2, JNK3—SPA Assay
A typical assay for testing the activity of compounds to inhibit JNK1, JNK2 and JNK3 enzymes is as follows: • 1. Compound is dissolved in DMSO to a convenient concentration and this is diluted in 10% DMSO to a five times concentrate of the desired starting concentration (frequently 1:100). • 2. 10 μl of 500 mM EDTA is added to alternative wells of the Opti-plate row, which will receive kinase reaction plus DMSO. This creates the negative control. • 3. For the JNK2 and JNK3 assay, compounds are prepared in six 2-fold dilutions with water and each concentration is tested in duplicate. For the JNK1 assay compounds are prepared in four 5-fold dilutions with water which are tested in triplicate. Controls are treated identically. • 4. 20 μl per well of each compound concentration is transferred to an Opti-plate, in duplicate. • 5. 30 μl (JNK2/3 SPA) or 50 μl (JNK1 SPA) of substrate solution (25 mM HEPES pH 7.5, 10 mM magnesium acetate with 3.33 μM ATP (JNK2/3) or 2 μM ATP (JNK1), approximately 7.5 kBq [γ-33P] ATP, GST-c-Jun, in water) is added to each well. • 6. 50 μl (JNK2/3 SPA) or 30 μl (JNK1 SPA) of kinase solution (JNK in 25 mM HEPES pH 7.5, 10 mM Mg Acetate) is added to each well.
• 7. […] Plates are sealed and incubated for 30 minutes at room temperature, centrifuged for 10 minutes at 2500 g and counted. • 10. […]

Sequence of JNK3 kinase (P53779 whole entry): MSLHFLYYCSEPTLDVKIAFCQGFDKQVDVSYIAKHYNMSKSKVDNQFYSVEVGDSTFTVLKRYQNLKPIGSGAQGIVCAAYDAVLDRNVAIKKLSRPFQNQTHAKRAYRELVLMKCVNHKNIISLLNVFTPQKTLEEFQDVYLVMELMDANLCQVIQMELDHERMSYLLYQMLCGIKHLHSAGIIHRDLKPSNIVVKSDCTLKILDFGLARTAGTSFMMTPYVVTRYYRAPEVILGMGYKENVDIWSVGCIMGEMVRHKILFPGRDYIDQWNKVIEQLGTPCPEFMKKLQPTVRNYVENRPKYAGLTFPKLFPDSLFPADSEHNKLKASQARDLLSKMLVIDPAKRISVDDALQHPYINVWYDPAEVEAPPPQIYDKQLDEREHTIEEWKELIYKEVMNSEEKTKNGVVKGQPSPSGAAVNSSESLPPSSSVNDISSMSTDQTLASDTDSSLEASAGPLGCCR

By IC50 is commonly meant the concentration needed to halve the response being measured. A low value points to higher potency. As for `c1csc(-c2cnc3[nH]ccc3c2)c1` [Compound 2], the IC50 is less than 500 nM. As to `CN(C)c1ccc(-c2cnc3[nH]ccc3c2)cc1` [Compound 1], half-maximal inhibition (IC50) required 1200 nM.
